Measured values taken from patent US20100015169A1, “Tumor Antigens” (GREEN PEPTIDE CO., LTD., priority 2001, published 2010).
No end group written: not given here.

Experiments:
Assay type in all cases: cell-based, human
[1] = system: PC93-A24 cells (HLA-A24+ prostate cancer cell); experiment: 6-hour 51Cr release test of peptide-induced CTL against HLA-A24+ prostate cancer cells; details: for Cytotoxic activity (% lysis): HLA-A24+ prostate cancer cell
Method: (§1) The cytotoxic activity of CTL induced from the PBMC of an HLA-A24^+ prostate cancer patient by PSM624-632 (SEQ ID NO: 3) was examined in the ^51Cr release test using prostate cancer cells. First, PBMC from two patients with prostate cancer were cultured for 10 days and stimulated as in Example 1, and then further cultured for 10 days prior to use as effector cells. The cytotoxic activity of the effector cells against HLA-A24^+ target cells was measured by a standard 6-hour ^51Cr release test at an E/T ratio of 10:1 or 20:1, and the results obtained were expressed as the percentage of specific lysis. PC93-A24 cells resulting from the introduction and expression of the HLA-A24 gene in HLA-A24^− prostate cancer cells (PC93), methods known in the art, were used as target cells. In addition, the HLA-A24^− prostate cancer cells were used as controls.
PBMC were cultured with 10 μg/ml each of PSA152-160 (SEQ ID NO: 1) or PSA248-257 (SEQ ID NO: 2) for 12 days, in the same manner as described above. Prostate cancer cells PC93-A24, which were created in Example 2 and used as target cells, were incubated with the aforementioned cultured PBMC, and then the amount of IFN-γ in the culture supernatant was measured (see Example 1). In addition, the aforementioned cultured cells were cultured for 14 additional days, and the cytotoxic activity against the PC93-A24 cells was measured by the ^51Cr release test (see Example 2).

[2] = system: C1R-A2402 cells (HLA-A24+) pulsed with the same peptide; experiment: IFN-γ production (ELISA) by peptide-stimulated PBMC in reaction to peptide-pulsed C1R-A2402 cells; induction of HLA-A24-restricted CTL; details: PBMC of prostate cancer patients; for cases in which the peptide enhanced the production of IFN-γ from PBMC: 10 μM peptide, 10 days, positive = significant, 50 pg/ml NET or more, Example 1
Method: The ability of the synthesized peptide to induce HLA-A24-restricted CTL from the PBMC that was prepared from a prostate cancer patient was examined. The PBMC were prepared from blood by a method of the art. 1×10^5 PBMC were cultured with 10 μM of each peptide in each well of a U-shaped 96-well micro-culture plate (produced by Nunc) to which 200 μl of culture medium (comprising 45% RPMI-1640 culture medium, 45% AIM-V® culture medium (Invitrogen), 100 U/ml of IL-2, 0.1 mM of MEM non-essential amino acid solution (Invitrogen), and 10% FCS) was added, at 37° C. under conditions of 5% CO2-95% air. At 4 days and 7 days of culturing, half of the culture medium was removed and replaced with a culture medium having the aforementioned composition containing the peptide equivalent to the peptide that was added in the beginning. At 10 days of culturing, the cells were collected, washed, and used as effector cells (E).
Meanwhile, each synthesized peptide (10 μM) was incubated with C1R-A2402 cells (HLA-A24^+) for 2 hours at 37° C. under conditions of 5% CO2-95% air, to make the peptide of interest bind to the HLA-A24 molecule expressed on the cell surface. C1R-A2402 cells thus pulsed with each of peptide were used as target cells (T).
The effector cells were equally divided, and mixed with a variety of target cells, followed by incubating for 18 hours at 37° C. under conditions of 5% CO2-95% air. After incubation, 100 μl of supernatant was collected, and the amount of IFN-γ produced was measured by ELISA. In so doing, the effector cells were paired with the target cells in such a way that the peptide used to induce the effector cells and the peptide pulsed to C1R-A2402 cells were the same. In addition, a peptide derived from the human immunodeficiency virus (hereinafter abbreviated as HIV) was used as a control, and the quantity of IFN-γ produced by CTL that recognized C1R-A2402 cells pulsed with the HIV peptide was taken as a background and subtracted from each measurement value. Each measurement value (NET) that has been calculated was statistically processed by the Student's t-test, and those with a P value of 0.05 or below were considered to be significant. In addition, a peptide that enhanced IFN-γ production with significance by 50 pg/ml NET or more was assessed as positive. […]

[3] = system: HLA-A24- prostate cancer cells (PC93); experiment: 6-hour 51Cr release test of peptide-induced CTL against HLA-A24- prostate cancer cells (control); details: HLA-A24- prostate cancer cell
Method: as §1

[4] = PBMC of a healthy subject, stimulated 12 days + 14 days, significant versus PC93 cells (FIG. 7B)
[5] = PBMC of prostate cancer patients, significant versus PC93 cells (FIG. 8B)
[6] = PBMC of prostate cancer patient 1, E/T = 10
[7] = PBMC of prostate cancer patient 1, E/T = 20
[8] = PBMC of prostate cancer patient 2, E/T = 10
[9] = PBMC of prostate cancer patient 2, E/T = 20

CYASGWGSI [PSA152-160]
cytotoxic activity against PC93-A24 cells [1, 4]: exhibited cytotoxic activity
cytotoxic activity against PC93-A24 cells [1, 5]: exhibited cytotoxic activity

PSCA82-91: peptide derived from PSCA, residues 82-91, HLA-A24-binding motif (KNITCCDTDL; A peptide recognized by HLA-A24 restricted cytotoxic T lymphocytes, which is designed based on the amino acid sequence of PSCA)
cases in which the peptide enhanced the production of IFN-γ from PBMC [2]: 2 out of 12

PSM448-456: peptide derived from PSMA that did not induce HLA-A24-restricted CTL (AYINADSSI)
induction of HLA-A24-restricted CTL [2]: did not induce

HYRKWIKDTI [PSA248-257]
cytotoxic activity against PC93-A24 cells [1, 4]: exhibited cytotoxic activity
cytotoxic activity against PC93-A24 cells [1, 5]: exhibited cytotoxic activity

PSM606-614: peptide derived from PSMA that did not induce HLA-A24-restricted CTL (KYADKIYSI)
induction of HLA-A24-restricted CTL [2]: did not induce

PSM298-306: peptide derived from PSMA that did not induce HLA-A24-restricted CTL (GYYDAQKLL)
induction of HLA-A24-restricted CTL [2]: did not induce

PSM227-235: peptide derived from PSMA that did not induce HLA-A24-restricted CTL (LYSDPADYF)
induction of HLA-A24-restricted CTL [2]: did not induce

PSCA27-36: peptide (PSCA residues 27-36) that did not induce HLA-A24-restricted CTL (LQVENCTQLG)
induction of HLA-A24-restricted CTL [2]: did not induce

PSM699-708: peptide derived from PSMA that did not induce HLA-A24-restricted CTL (KYAGESFPGI)
induction of HLA-A24-restricted CTL [2]: did not induce

PSM178-186: peptide derived from PSMA that did not induce HLA-A24-restricted CTL (NYARTEDFF)
induction of HLA-A24-restricted CTL [2]: did not induce

PSM565-574: peptide derived from PSMA that did not induce HLA-A24-restricted CTL (FYDPMFKYHL)
induction of HLA-A24-restricted CTL [2]: did not induce

PSM520-528: peptide derived from PSMA that did not induce HLA-A24-restricted CTL (DFEVFFQRL)
induction of HLA-A24-restricted CTL [2]: did not induce

PSM704-712: peptide derived from PSMA that did not induce HLA-A24-restricted CTL (SFPGIYDAL)
induction of HLA-A24-restricted CTL [2]: did not induce

PSM624-633: peptide derived from PSMA that did not induce HLA-A24-restricted CTL (TYSVSFDSLF)
induction of HLA-A24-restricted CTL [2]: did not induce

PSCA76-84: peptide derived from PSCA, residues 76-84, HLA-A24-binding motif (DYYVGKKNI; A peptide recognized by HLA-A24 restricted cytotoxic T lymphocytes, which is designed based on the amino acid sequence of PSCA)
cases in which the peptide enhanced the production of IFN-γ from PBMC [2]: 1 out of 12

TYSVSFDSL [PSM624-632]
Cytotoxic activity (% lysis) [1, 6]: 16.1 % lysis
Cytotoxic activity (% lysis) [1, 7]: 19.9 % lysis
Cytotoxic activity (% lysis) [1, 8]: 18.0 % lysis
Cytotoxic activity (% lysis) [1, 9]: 17.8 % lysis
Cytotoxic activity (% lysis) [3, 6]: 6.6 % lysis
Cytotoxic activity (% lysis) [3, 7]: 6.1 % lysis
Cytotoxic activity (% lysis) [3, 8]: 3.5 % lysis
Cytotoxic activity (% lysis) [3, 9]: 5.6 % lysis

PSM584-593: peptide derived from PSMA that did not induce HLA-A24-restricted CTL (VFELANSIVL)
induction of HLA-A24-restricted CTL [2]: did not induce

PSM74-83: peptide derived from PSMA that did not induce HLA-A24-restricted CTL (LYNFTQIPHL)
induction of HLA-A24-restricted CTL [2]: did not induce
